From the supplement of paper PMC11061612

Assays:
Assay in all cases: Bliss excess, mean over the matrix (fraction); higher = more synergy
[1] = test system: SK-N-AS (Neuroblastoma)
How it was run: (§1)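 Bliss excess equals the observed combination effect minus the expected value EA + EB − EA·EB, where EA and EB are the effects of each agent alone. Combination Emax is the second-highest inhibition within the matrix. Inhibition was scaled from CellTiter-Glo 2.0 luminescence, with 0 set by vehicle wells and 1 by blank wells, after 72 hours of two-drug dosing of cells plated in 1536-well plates.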

[2] = test system: G-401 (Other Solid Carcinomas)
How it was run: as §1

[3] = test system: MOG-G-UVW (Low Grade Glioma)
How it was run: as §1

[4] = test system: OACM5-1 (Esophageal Adenocarcinoma)
How it was run: as §1

[5] = test system: KOPN-8 (B-Lymphoblastic Leukemia)
How it was run: as §1

[6] = test system: MDA-MB-453 (Breast Carcinoma)
How it was run: as §1

[7] = test system: NCI-H650 (Lung Adenocarcinoma)
How it was run: as §1

[8] = test system: EJM (Plasma Cell Myeloma)
How it was run: as §1

[9] = test system: KGN (Other Solid Carcinomas)
How it was run: as §1

[10] = test system: HAL-01 (B-Lymphoblastic Leukemia)
How it was run: as §1

[11] = test system: HCC2998 (Colorectal Carcinoma)
How it was run: as §1

[12] = test system: NCI-H1993 (Lung Adenocarcinoma)
How it was run: as §1

[13] = test system: SW982 (Other Solid Carcinomas)
How it was run: as §1

[14] = test system: Mo-T (Other Blood Carcinomas)
How it was run: as §1

[15] = test system: ML-2 (Acute Myeloid Leukemia)
How it was run: as §1

[16] = test system: Hey (Ovarian Carcinoma)
How it was run: as §1

[17] = test system: CADO-ES1 (Ewing's Sarcoma)
How it was run: as §1

[18] = test system: COLO-679 (Melanoma)
How it was run: as §1

[19] = test system: EFO-21 (Ovarian Carcinoma)
How it was run: as §1

[20] = test system: NCI-H2122 (Lung Adenocarcinoma)
How it was run: as §1

Structure (SMILES)	Bliss excess [1]	Bliss excess [2]	Bliss excess [3]	Bliss excess [4]	Bliss excess [5]	Bliss excess [6]	Bliss excess [7]	Bliss excess [8]	Bliss excess [9]	Bliss excess [10]	Bliss excess [11]	Bliss excess [12]	Bliss excess [13]	Bliss excess [14]	Bliss excess [15]	Bliss excess [16]	Bliss excess [17]	Bliss excess [18]	Bliss excess [19]	Bliss excess [20]
COc1cccc(OCCCN)c1-c1cc(Nc2cnc(C#N)cn2)n[nH]1 [Prexasertib] + Cc1cc2ncnn2cc1Nc1ncc2c(n1)n(C1CCOCC1)c(=O)n2C [AZD7648] (first compound max 1 µM, 7x7, partner max 10 µM)	-0.0015	-0.0221	-0.0264	-0.026	0.0298	-0.0143	-0.0389	-0.0334	-0.0033	-0.0257	-0.0053	-0.0683	-0.0355	0.0159	-0.0357	-0.0301	-0.0261	-0.0157	-0.0446	-0.0289
CC1(C)CCC(CN2CCN(c3ccc(C(=O)NS(=O)(=O)c4ccc(NCC5CCOCC5)c([N+](=O)[O-])c4)c(Oc4cnc5[nH]ccc5c4)c3)CC2)=C(c2ccc(Cl)cc2)C1 [Venetoclax] + CN(C)CCCOc1ccc(-c2ccc3ncc4c(c3c2)n(C2CCOCC2)c(=O)n4C)cn1 [AZD0156] (first compound max 1 µM, 7x7, partner max 1 µM)	-0.0469	-0.0712	0.0408	-0.0017	-0.0498	-0.0225	-0.0194	-0.0047	-0.0172	0.0439	-0.0292	-0.0681	-0.086	-0.0469	-0.0728	-0.0255	-0.0204	-0.0328	-0.0375	0.0112
COc1nnc2ccc(N3CCC(c4ccc(OCCN5CCN(C)C(=O)[C@H]5C)cc4)CC3)nn12 [AZD5153] + C[C@@H]1COCCN1C2=NC(=NC(=C2)C3(CC3)[S@](=N)(=O)C)C4=C5C=CNC5=NC=C4 [AZD6738] (first compound max 1 µM, 7x7, partner max 10 µM)	0.002	-0.0078	-0.046	0.0593	-0.0114	-0.0534	0.0125	0.0187	-0.0865	-0.0737	0.0607	-0.0462	-0.0392	-0.0184	-0.0116	-0.0048	-0.0881	0.0003	-0.0069	-0.0163
C=CCn1c(=O)c2cnc(Nc3ccc(N4CCN(C)CC4)cc3)nc2n1-c1cccc(C(C)(C)O)n1 [AZD1775] + O=C(c1cc(Cc2n[nH]c(=O)c3ccccc23)ccc1F)N1CCN(C(=O)C2CC2)CC1 [Olaparib] (first compound max 1 µM, partner max 10 µM)	-0.0075	-0.0999	-0.0329	-0.0363	-0.016	-0.0441	-0.0532	-0.0429	-0.0844	-0.0542	-0.057	-0.0631	-0.102	-0.0418	0.0099	-0.0327	0.0402	-0.0076	-0.0266	-0.0522
COc1nnc2ccc(N3CCC(c4ccc(OCCN5CCN(C)C(=O)[C@H]5C)cc4)CC3)nn12 [AZD5153] + Cc1c2c(nn1C)CSCc1cc(n(C)n1)CSc1cc(c3ccccc3c1)OCCCc1c(C(=O)O)n(C)c3c-2c(Cl)ccc13 [AZD5991] (first compound max 1 µM, 7x7, partner max 1 µM)	-0.0164	0.0312	-0.0387	0.0114	0.0112	0.0437	-0.03	0.0564	-0.0364	-0.0787	0.0352	-0.0106	-0.0488	-0.0592	0.0582	-0.0231	0.0176	-0.0101	-0.0428	-0.0402
CC1(C)CCC(CN2CCN(c3ccc(C(=O)NS(=O)(=O)c4ccc(NCC5CCOCC5)c([N+](=O)[O-])c4)c(Oc4cnc5[nH]ccc5c4)c3)CC2)=C(c2ccc(Cl)cc2)C1 [Venetoclax] + C[C@@H](Nc1cc(F)cc(F)c1)c1cc(C(=O)N(C)C)cc2c(=O)cc(N3CCOCC3)oc12 [AZD8186] (first compound max 1 µM, 7x7, partner max 3 µM)	-0.0347	-0.0275	-0.0111	0.0321	-0.0088	-0.0313	-0.0257	0.0077	-0.0296	0.0246	-0.0317	0.0036	-0.0813	0.0015	-0.0292	-0.0286	0.117	0.0001	-0.0441	0.0055
Cc1c2c(nn1C)CSCc1cc(n(C)n1)CSc1cc(c3ccccc3c1)OCCCc1c(C(=O)O)n(C)c3c-2c(Cl)ccc13 [AZD5991] + CCN(CCO)CCCOc1ccc2c(Nc3cc(CC(=O)Nc4cccc(F)c4)[nH]n3)ncnc2c1 [AZD2811] (first compound max 1 µM, 7x7, partner max 1 µM)	0.0414	-0.0061	0.0197	0.0416	-0.0289	0.125	0.0512	0.0504	-0.0067	0.0012	0.0679	-0.0072	-0.0578	-0.0109	-0.0122	0.0293	0.0101	0.0115	-0.0065	0.0065
CN(CCO)CC[C@H](CSc1ccccc1)Nc1ccc(S(=O)(=O)NC(=O)c2ccc(N3CCC([C@@H](O)c4ccccc4-c4ccc(Cl)cc4)CC3)cc2)cc1S(=O)(=O)C(F)(F)F [AZD4320] + C=CCn1c(=O)c2cnc(Nc3ccc(N4CCN(C)CC4)cc3)nc2n1-c1cccc(C(C)(C)O)n1 [AZD1775] (first compound max 1 µM, partner max 1 µM)	-0.0292	-0.0058	-0.0193	-0.01	0.0016	0.047	0.0369	0.0256	-0.0387	0.0695	0.0609	0.0951	0.0247	0.0529	-0.0228	-0.053	-0.005	-0.0078	-0.078	-0.0143
COc1cccc(OCCCN)c1-c1cc(Nc2cnc(C#N)cn2)n[nH]1 [Prexasertib] + CN(C)CCCOc1ccc(-c2ccc3ncc4c(c3c2)n(C2CCOCC2)c(=O)n4C)cn1 [AZD0156] (first compound max 1 µM, 7x7, partner max 1 µM)	-0.0026	-0.0265	-0.0204	-0.0235	0.0171	-0.0509	-0.008	-0.0303	-0.0432	-0.0002	-0.0121	-0.0768	-0.0813	0.0105	0.003	-0.0098	0.0008	0.0127	-0.0684	-0.0115
COc1nnc2ccc(N3CCC(c4ccc(OCCN5CCN(C)C(=O)[C@H]5C)cc4)CC3)nn12 [AZD5153] + CC1(C)CCC(CN2CCN(c3ccc(C(=O)NS(=O)(=O)c4ccc(NCC5CCOCC5)c([N+](=O)[O-])c4)c(Oc4cnc5[nH]ccc5c4)c3)CC2)=C(c2ccc(Cl)cc2)C1 [Venetoclax] (first compound max 1 µM, 7x7, partner max 1 µM)	-0.0792	-0.0959	-0.0315	-0.0458	0.0517	-0.0381	-0.132	-0.0381	-0.0165	-0.0804	-0.0766	-0.0456	-0.0581	-0.0447	0.0122	-0.0568	-0.088	-0.0818	-0.0464	-0.041
Cn1cnc2c(F)c(Nc3ccc(Br)cc3Cl)c(C(=O)NOCCO)cc21 [Selumetinib] + C=CCn1c(=O)c2cnc(Nc3ccc(N4CCN(C)CC4)cc3)nc2n1-c1cccc(C(C)(C)O)n1 [AZD1775] (first compound max 10 µM, partner max 1 µM)	0.0024	-0.0483	-0.0144	-0.0964	0.0681	-0.0065	0.0099	-0.0146	-0.115	0.0056	-0.0267	0.0225	-0.0112	-0.0318	-0.0186	-0.0363	-0.114	-0.0285	-0.0834	0.0552
Cc1c2c(nn1C)CSCc1cc(n(C)n1)CSc1cc(c3ccccc3c1)OCCCc1c(C(=O)O)n(C)c3c-2c(Cl)ccc13 [AZD5991] + C[C@@H]1COCCN1C2=NC(=NC(=C2)C3(CC3)[S@](=N)(=O)C)C4=C5C=CNC5=NC=C4 [AZD6738] (first compound max 1 µM, 7x7, partner max 10 µM)	-0.0034	-0.0341	0.0058	0.0257	-0.0067	0.0525	0.0217	0.0277	0.0182	-0.0042	0.044	-0.0216	-0.0086	0.0152	-0.0999	0.012	0.0135	0.0047	0.016	0.0199
NC1(C(=O)N[C@@H](CCO)c2ccc(Cl)cc2)CCN(c2ncnc3[nH]ccc23)CC1 [Capivasertib] + C[C@@H]1COCCN1C2=NC(=NC(=C2)C3(CC3)[S@](=N)(=O)C)C4=C5C=CNC5=NC=C4 [AZD6738] (first compound max 10 µM, 7x7, partner max 10 µM)	-0.0469	-0.0856	-0.0348	0.0338	-0.0253	-0.0798	-0.0441	0.0305	-0.0783	-0.0267	-0.0629	-0.0598	-0.0382	0.0465	-0.0241	-0.0402	-0.0284	-0.128	-0.0322	-0.0658
Cn1cnc2c(F)c(Nc3ccc(Br)cc3Cl)c(C(=O)NOCCO)cc21 [Selumetinib] + CC(C)n1c(=O)n(C)c2cnc3cc(F)c(-c4ccc(OCCCN5CCCCC5)nc4)cc3c21 [AZD1390] (first compound max 10 µM, 7x7, partner max 0.3 µM)	-0.019	-0.0623	0.0397	-0.0273	0.0131	-0.0148	-0.0329	-0.0131	0.0282	0.0741	0.0076	-0.0741	-0.0484	-0.0339	-0.0506	-0.0378	-0.0446	-0.0416	-0.026	-0.0099
